Test results taken from US20080103152A1, “Novel Diazabicyclononene Derivative” (Actelion Pharmaceuticals Ltd, priority 2004, published 2008).

Experiments:
recombinant human renin = molecular target: T1, recombinant human renin (Homo sapiens, UniProt P00797); experiment: Primary renin inhibition assay: IC50 in buffer, 384 well MTP (Ang I measured by EIA); type: biochemical; settings: human tetradecapeptide substrate, 37° C. for 3 h, read-out: IC50 of renin inhibition (Ang I decrease)
T1 sequence (P00797 67-406): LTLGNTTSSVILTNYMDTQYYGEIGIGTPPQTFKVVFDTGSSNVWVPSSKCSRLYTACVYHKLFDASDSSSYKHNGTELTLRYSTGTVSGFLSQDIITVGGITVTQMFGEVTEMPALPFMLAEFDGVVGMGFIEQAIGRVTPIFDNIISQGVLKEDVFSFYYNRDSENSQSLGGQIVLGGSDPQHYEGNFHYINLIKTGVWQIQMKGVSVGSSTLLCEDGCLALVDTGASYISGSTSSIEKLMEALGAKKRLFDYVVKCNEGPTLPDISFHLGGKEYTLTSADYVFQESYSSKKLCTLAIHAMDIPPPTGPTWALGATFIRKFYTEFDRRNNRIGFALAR
Protocol: 1. Enzyme Immuno Assay (EIA) to Estimate Ang I Accumulation and Renin Inhibition
1.1 Preparation of Ang I-BSA Conjugate
1.3 mg (1 μmol) of Ang I [1-10 (Bachem, H-1680)] and 17 mg (0.26 μmol) of BSA (Fluka, 05475) were dissolved in 4 mL of 0.1M phosphate buffer, pH 7.4, after which 2 mL of a 1:100 dilution of glutaraldehyde in H2O (Sigma G-5882) was added dropwise. The mixture was incubated overnight at 4° C., then dialyzed against 2 liters of 0.9% NaCl, twice for 4 h at rt, followed by dialysis against 2 liters of PBS 1× overnight at rt. The solution was then filtered with a Syringe filter, 0.45 μm (Nalgene, Cat. No. 194-2545). The conjugate can be stored in polypropylene tubes in 0.05% sodium azide at 4° C. for at least 12 months.
1.2 Preparation of BSA-Ang I Coated MTP […]
The renin assay was adapted from an assay described before (Fischli W. et al., Hypertension, 1991, 18:22-31) and consists of two steps: in the first step, recombinant human renin is incubated with its substrate (commercial human tetradecapeptide renin substrate) to create the product Angiotensin I (Ang I). In the second step, the accumulated Ang I is measured by an immunological assay (enzyme immuno assay, EIA). […]

[1] = tested on: double transgenic rats with human renin and human angiotensinogen; experiment: Hemodynamic measurements (telemetry method), mean arterial blood pressure; type: in vivo, rat; settings: for blood pressure decrease (maximal decrease of mean arterial pressure versus control group): hypertensive female double transgenic rats
Protocol: Hemodynamic Measurements (Telemetry Method)
Animals—Female double transgenic rats with human renin and human angiotensinogen were purchased from RCC Ltd, Füllingsdorf, Switzerland. All animals were maintained under identical conditions and had free access to normal pelleted rat chow and water. Rats were initially treated with enalapril (1 mg/kg/day) during 2 months. After approximately two weeks following cessation of enalapril treatment the double transgenic rats become hypertensive and reach mean arterial blood pressures in the range of 160-170 mmHg.
Transmitter implantation—The rats were anaesthetised with a mixture of 90 mg/kg Ketamin-HCl (Ketavet, Parke-Davis, Berlin FRG) and 10 mg/kg xylazin (Rompun, Bayer, Leverkusen, FRG) i.p. The pressure transmitter was implanted under aseptic conditions into the peritoneal cavity with the sensing catheter placed in the descending aorta below the renal arteries pointing upstream. The transmitter was sutured to the abdominal musculature and the skin closed.
Telemetry-System—Telemetry units were obtained from Data Sciences (St. Paul, Minn.). […] The tip of the catheter was filled with a viscous gel that prevents blood reflux and was coated with an antithrombogenic film to inhibit thrombus formation. The implants (length=[…], diameter=1.2 cm) weighted 9 g and have a typical battery life of 6 months. A receiver platform (RPC-1, Data Sciences) connected the radio signal to digitized input that was sent to a dedicated personal computer (Compaq, deskpro). Arterial pressures were calibrated by using an input from an ambient-pressure reference (APR-1, Data Sciences). Systolic, mean and diastolic blood pressure was expressed in millimeter of mercury (mmHg).
[…] The effect of the test substance is expressed as maximal decrease of mean arterial pressure (MAP) in the treated group versus the control group.

In the case of `O=C(C1=C(c2ccc(CCCOc3c(F)ccc(F)c3Cl)cc2)C[C@@H]2CNC[C@H]1N2)N(Cc1cccc(Cl)c1Cl)C1CC1` [Compound (I′), (1R,5S)-7-{4-[3-(2-Chloro-3,6-difluorophenoxy)propyl]phenyl}-3,9-diazabicyclo[3.3.1]non-6-ene-6-carboxylic acid cyclopropyl-(2,3-dichlorobenzyl)amide], the IC50 (recombinant human renin) is reported as 500 pM, the “activity in the animal model (in words)” value ([1]; oral gavage, double transgenic rats) is reported as “active” and the “blood pressure decrease (maximal decrease of mean arterial pressure versus control group)” value ([1]; single oral dose of 3 mg/kg) is reported as 13 mmHg. For the same molecule, the “blood pressure decrease (maximal decrease of mean arterial pressure versus control group)” value ([1]; single oral dose of 10 mg/kg) was 26 mmHg.
